≈ marks a conversion by molar mass, not a printed value. Where two headings read alike, the source gives them in different places. Marks after values point to notes of the source that are not given here. Where a SMILES comes first, the peptide text is derived from it. Bridges are numbered along the chain shown (N, C = ends). [ ]: non-standard residue; d: D form. The star is where a group is joined. X2 = NC[C@@H](CC(=O)*)c1cccc(Cl)c1; Dab = NCC[C@H](N)C(=O)O; Dap = NC[C@H](N)C(=O)O
Experiments:
A.baumannii IHMA 517303 = type: cell-based, Acinetobacter baumannii; details: compound alone; reduced susceptibility to polymyxins
E.coli IHMA940398 = type: cell-based, Escherichia coli; details: compound alone; reduced susceptibility to polymyxins
P.aeruginosa ATCC 27853 = type: cell-based, Pseudomonas aeruginosa; details: compound alone; polymyxin-susceptible strain
[1] = Determination of kidney drug levels; type: in vivo; details: mouse, single 17.2 mg/kg subcutaneous dose, period 4-16 hr
P.aeruginosa IHMA517175 = type: cell-based, Pseudomonas aeruginosa; details: compound alone; reduced susceptibility to polymyxins
E.coli ATCC 25922 = type: cell-based, Escherichia coli; details: compound alone; polymyxin-susceptible strain
K.pneumonia ATCC 13882 = type: cell-based, Klebsiella pneumoniae; details: compound alone; polymyxin-susceptible strain
P.aeruginosa IHMA644636 = type: cell-based, Pseudomonas aeruginosa; details: compound alone; reduced susceptibility to polymyxins
E. coli IHMA558090 = type: cell-based, Escherichia coli; details: compound alone; reduced susceptibility to polymyxins
[2] = mouse; cited from earlier work
[3] = Cynomolgus monkey; cited from earlier work
K. pneumoniae IHMA580884 = type: cell-based, Klebsiella pneumoniae; details: compound alone; reduced susceptibility to polymyxins
A.baumannii NCTC 13301 = type: cell-based, Acinetobacter baumannii; details: compound alone, polymyxin-susceptible strain
K.pneumoniae IHMA520329 = type: cell-based, Klebsiella pneumoniae; details: compound alone; reduced susceptibility to polymyxins
A.baumannii BAA-747 = type: cell-based, Acinetobacter baumannii; details: compound alone; polymyxin-susceptible strain
A.baumannii IHMA 851735 = assay: MIC by broth microdilution; type: cell-based, Acinetobacter baumannii; details: compound alone; reduced susceptibility to polymyxins
A. baumannii NCTC13301 = assay: Neutropenic mouse thigh efficacy model; type: in vivo, Acinetobacter baumannii; details: same conditions (20mg/kg)
K.pneumoniae IHMA652780 = assay: MIC by broth microdilution; type: cell-based, Klebsiella pneumoniae; details: compound alone; reduced susceptibility to polymyxins
[4] = Plasma exposure in the renal toxicity study; type: in vivo; details: mouse, 25 mg/kg dose level
[5] = In vivo nephrotoxicity, kidney histopathology and urinary biomarkers; set-up: species or system male CD-1 mice

CC(C)C[C@@H]1NC(=O)[C@@H](Cc2ccccc2)NC(=O)[C@H](CCN)NC(=O)[C@@H](NC(=O)[C@H](CN)NC(=O)[C@@H](NC(=O)C[C@H](CN)c2cccc(Cl)c2)[C@@H](C)O)CCNC(=O)[C@H]([C@@H](C)O)NC(=O)[C@H](CCN)NC(=O)[C@H](CCN)NC1=O [Compound 26, SPR206] (X2-T[Dap][Dab][Dab][dF]L[Dab][Dab]T; lactam 3-C (inferred))
MIC A.baumannii IHMA 517303 (A.baumannii IHMA 517303): >64 mg/L | MIC E.coli IHMA940398 (E.coli IHMA940398): 32 mg/L (≈ 28 µM) | MIC P.aeruginosa ATCC 27853 (P.aeruginosa ATCC 27853): 0.25 mg/L (≈ 0.218 µM) | AUC in renal tissue [1]: 850 µg·h/g | MIC P.aeruginosa IHMA517175 (P.aeruginosa IHMA517175): 8 mg/L (≈ 6.99 µM) | MIC E.coli ATCC 25922 (E.coli ATCC 25922): 0.125 mg/L (≈ 0.109 µM) | MIC K.pneumonia ATCC 13882 (K.pneumonia ATCC 13882): 0.125 mg/L (≈ 0.109 µM) | MIC P.aeruginosa IHMA644636 (P.aeruginosa IHMA644636): 32 mg/L (≈ 28 µM) | MIC E. coli IHMA558090 (E. coli IHMA558090): 8 mg/L (≈ 6.99 µM) | renal toxicity compared to PMB [2]: significantly reduced renal toxicity compared to PMB | renal toxicity compared to PMB [3]: significantly reduced renal toxicity compared to PMB | MIC K. pneumoniae IHMA580884 (K. pneumoniae IHMA580884): 16 mg/L (≈ 14 µM) | MIC A.baumannii NCTC 13301 (A.baumannii NCTC 13301): 0.06 mg/L (≈ 0.0524 µM) | MIC K.pneumoniae IHMA520329 (K.pneumoniae IHMA520329): 64 mg/L (≈ 55.9 µM) | MIC A.baumannii BAA-747 (A.baumannii BAA-747): 0.125 mg/L (≈ 0.109 µM)

Colistin [2 (Colistin)]
MIC A.baumannii IHMA 517303 (A.baumannii IHMA 517303): >64 mg/L | MIC E.coli IHMA940398 (E.coli IHMA940398): 16 mg/L | MIC P.aeruginosa ATCC 27853 (P.aeruginosa ATCC 27853): 1 mg/L | MIC P.aeruginosa IHMA517175 (P.aeruginosa IHMA517175): 64 mg/L | MIC E.coli ATCC 25922 (E.coli ATCC 25922): 0.25 mg/L | MIC K.pneumonia ATCC 13882 (K.pneumonia ATCC 13882): 0.25 mg/L | MIC P.aeruginosa IHMA644636 (P.aeruginosa IHMA644636): 32 mg/L | MIC E. coli IHMA558090 (E. coli IHMA558090): 4 mg/L | MIC K. pneumoniae IHMA580884 (K. pneumoniae IHMA580884): 16 mg/L | MIC A.baumannii NCTC 13301 (A.baumannii NCTC 13301): 0.5 mg/L | MIC K.pneumoniae IHMA520329 (K.pneumoniae IHMA520329): >64 mg/L | MIC A.baumannii BAA-747 (A.baumannii BAA-747): 0.25 mg/L

Polymyxin B [1 (PMB)]
MIC A.baumannii IHMA 517303 (A.baumannii IHMA 517303): >64 mg/L | MIC A.baumannii IHMA 851735 (A.baumannii IHMA 851735): 4 mg/L | MIC E.coli IHMA940398 (E.coli IHMA940398): 16 mg/L | MIC P.aeruginosa ATCC 27853 (P.aeruginosa ATCC 27853): 0.5 mg/L | MIC P.aeruginosa IHMA517175 (P.aeruginosa IHMA517175): 8 mg/L | MIC E.coli ATCC 25922 (E.coli ATCC 25922): 0.25 mg/L | MIC K.pneumonia ATCC 13882 (K.pneumonia ATCC 13882): 0.25 mg/L | MIC P.aeruginosa IHMA644636 (P.aeruginosa IHMA644636): 32 mg/L | drop in colony forming units (CFU) from the pre-treatment level (A. baumannii NCTC13301): greater than 2 log10 | MIC E. coli IHMA558090 (E. coli IHMA558090): 4 mg/L | MIC K.pneumoniae IHMA652780 (K.pneumoniae IHMA652780): 4 mg/L | plasma AUCinf [4]: 57 µg·h/mL | Histopathology score – number of animals Normal ([5]; 12.5 mg/kg, 24hr, n = 5): 5 | Histopathology score – number of animals Minimal ([5]; 12.5 mg/kg, 4 days, n = 5): 1 | Histopathology score – number of animals Normal ([5]; 12.5 mg/kg, 4 days, n = 5): 4 | Histopathology score – number of animals Mild ([5]; 25 mg/kg, 24hr, n = 5): 2 | Histopathology score – number of animals Minimal ([5]; 25 mg/kg, 24hr, n = 5): 2 | Histopathology score – number of animals Moderate ([5]; 25 mg/kg, 24hr, n = 5): 1 ^* | Histopathology score – number of animals Minimal ([5]; 25 mg/kg, 4 days, n = 5): 2 | kidney histopathology ([5]; mouse, 25 mg/kg sc three times per day, 24 hr and 4 day studies): significant histopathology changes in the kidneys | MIC K. pneumoniae IHMA580884 (K. pneumoniae IHMA580884): 8 mg/L | MIC A.baumannii NCTC 13301 (A.baumannii NCTC 13301): 0.25 mg/L | MIC A.baumannii NCTC 13301 (A.baumannii NCTC 13301; listed as PMB): 0.25 mg/L | MIC K.pneumoniae IHMA520329 (K.pneumoniae IHMA520329): 64 mg/L | MIC A.baumannii BAA-747 (A.baumannii BAA-747): 0.25 mg/L
